Test results taken from US12383512B2, “Cannabidiol-type cannabinoid compound” (Jazz Pharmaceuticals Research UK LImited, priority 2019, dated 2025).

Legend:
[1] = system: tonic hind limb extensor seizure following corneally delivered electroshock in mice; assay: Supramaximal electroshock seizure (MES) test in the mouse; type: in vivo
Experimental: The MES test is a very stringent model in which mice receive a predetermined high-level electrical stimulus of sufficient intensity to reliably produce tonic hindlimb extensor seizures in 100% of control animals. As such the MES test is a rigorous evaluation of anticonvulsant activity (Swinyard, 1985).
Animals were dosed i.p. according to treatment group. […]
In addition, a dose of 100 mg/kg CBD was given at 10 ml/kg i.p. at 120 minutes pre-treatment time to assess the effect of the drug over a longer time course.
The positive control valproate was used at 250 mg/kg (10 ml/kg i.p. 30 min pre-treatment time).
Induction of seizure is measured as an all-or-nothing effect scored as either present (+) or absent (0) for each animal.
Data was collected by an observer unaware of the treatment for each animal and was expressed as the number of +'s or 0's for each treatment group.
The percentage inhibition of relevant vehicle treated group (the protection relative to vehicle treated controls) was then generated.
Significant differences between individual treatment groups and vehicle-treated groups were assessed using 2-tailed Fisher's Exact Probability test (p<0.05 considered significant).

[2] = system: seizure threshold current for tonic hind limb extensor convulsions in mice; assay: Maximal electroshock seizure threshold (MEST) test in the mouse; conditions: for % change from vehicle (CC50) / CC50 ± SEM: MEST test
Experimental: The efficacy of 6-OH CBD was tested in a mouse model of generalised seizure, the maximal electroshock seizure threshold (MEST) test.
In the MEST test the ability of a drug to alter the seizure threshold current required to induce hind limb tonic extensor convulsions is measured according to an “up and down” method of shock titration (Kimball et al., 1957). An increase in seizure threshold is indicative of anti-convulsant effect.
The ability of a test compound to alter the stimulus intensity, expressed as current (mA), required to induce the presence of tonic hind limb extensor convulsions, is assessed in the MEST.
Naïve mice were acclimatised to the procedure room in their home cages for up to 7 days, with food and water available ad libitum.
All animals were weighed at the beginning of the study and randomly assigned to treatment groups based on a mean distribution of body weight across groups.
The first animal within a treatment group was given a shock at the expected or estimated CC50 current. For subsequent animals, the current was lowered or raised depending on the convulsions outcome from the preceding animal.
Data generated from each treatment group were used to calculate the CC50±SEM values for the treatment group.
Vehicle: (5% ethanol, 5% solutol, 90% Saline) was prepared as follows: 2 mL of ethanol, 2 mL of solutol were warmed to 60° C., in 36 mL of saline (1:1:18).
The test compound, alpha 6-OH CBD was prepared according to the method described in Example 1. 6-OH CBD was administered at 3, 10 and 30 mg/kg (i.p.) in a 1:1:18 ethanol:solutol:0.9% saline formulation.
6-OH CBD effects were also calculated as percentage change in CC50 from the vehicle control group.
Significant difference between drug-treated animals and controls were assessed according to Litchfield and Wilcoxon (1949).

[3] = 30 mg/kg i.p., pre-treatment time 60 min
[4] = 3 mg/kg i.p., pre-treatment time 30 min
[5] = 10 mg/kg i.p., pre-treatment time 15 min

**Q.** How did the “% change from vehicle” value ([1]; 3 mg/kg i.p., pre-treatment time 60 min) turn out when `C=C(C)[C@@H]1CC(O)C(C)=C[C@H]1c1c(O)cc(CCCCC)cc1O` (stereo partly drawn) [6-OH CBD, Alpha 6-hydroxy cannabidiol] was run?
**A.** 0%

**Q.** What about the “seizure outcome in words” value ([1]; 3 mg/kg i.p., text says 120 minutes before the test) of the same molecule?
**A.** ineffective

**Q.** And the “% change from vehicle” value [1, 3]?
**A.** 100%

**Q.** And the “seizure outcome in words” value ([1]; 30 mg/kg i.p., text says 120 minutes before the test)?
**A.** enabled all mice within the group to withstand seizures

**Q.** What about the “seizure outcome in words” value ([1]; 100 mg/kg given 120 minutes before) of the same molecule?
**A.** statistically significant reduction of seizures

**Q.** What about the “% change from vehicle” value ([1]; 100 mg/kg i.p., pre-treatment time 60 min) of the same molecule?
**A.** 100%

**Q.** What about the “% change from vehicle” value ([1]; 100 mg/kg i.p., pre-treatment time 120 min) of the same molecule?
**A.** 100%

**Q.** What about the “seizure outcome in words” value ([1]; 100 mg/kg i.p., text says 120 minutes before the test) of the same molecule?
**A.** enabled all mice within the group to withstand seizures

**Q.** And the “% change from vehicle” value ([1]; 200 mg/kg i.p., pre-treatment time 60 min)?
**A.** 100%

**Q.** And the “seizure outcome in words” value ([1]; 200 mg/kg i.p., text says 120 minutes before the test)?
**A.** enabled all mice within the group to withstand seizures

**Q.** What about the “effect on MEST in words” value ([2]; 3, 10 and 30 mg/kg i.p.) of the same molecule?
**A.** dose-related increase in MEST

**Q.** And the “% change from vehicle (CC50)” value [2, 4]?
**A.** 25%

**Q.** And the “CC50 ± SEM” value [2, 4]?
**A.** 30.0 ± 1.1 mA

**Q.** What about the “% change from vehicle (CC50)” value [2, 5] of the same molecule?
**A.** 135%

**Q.** And the “CC50 ± SEM” value [2, 5]?
**A.** 56.5 ± 2.1 mA

**Q.** What about the “% change from vehicle (CC50)” value [2, 3] of the same molecule?
**A.** 327%

**Q.** And the “CC50 ± SEM” value [2, 3]?
**A.** 102.5 ± 2.2 mA
